Patent EP4120837B1, “INHIBITORS OF CYTOKININ OXIDASE DERIVED FROM 2-(3-PHENYLUREIDO)BENZAMIDE, USE THEREOF AND PREPARATIONS CONTAINING THESE DERIVATIVES” (Univerzita Palackého v Olomouci, priority 2020, dated 2021)
pIC50: −log10 of the molar value.

target: T1, ZmCKX1 (Zea mays, UniProt Q9T0N8); assay: ZmCKX1 inhibition, PMS/MTT assay; assay type: biochemical, maize; conditions: not given
T1 construct: made in house; host or cells: Yarrowia lipolytica
Method: The IC50 (concentration of a substance that causes 50% inhibition of the enzyme activity) was measured by PMS/MTT assay [phenazine methosulphate/3-(4,5-dimethylthiazol-2-yl)-2,5-diphenyltetrazolium bromide]. The assay was performed in 96-well microtiter plates. Each well contained a reaction mixture with a final concentration of: 0.1 M KH2PO4, pH 7.4, 1 mM MTT, 0.2 mM PMS, tested substance in a concentration range of 0.1 nM - 1 µM and 10 µM N^6-isopentenyladenine (iP) as a substrate. To this reaction mixture 100 µL of medium containing the active enzyme ZmCKX1 was added. The enzyme was produced by the yeast Yarrowia lipolytica and isolated according to the protocol (Kopečný D. et al., 2005, […] 87:1011-1022). The plates were incubated for 30 min at 37 °C and the enzymatic reaction was stopped by the addition of 25 µL of 35% acetic acid. Then, the absorbance at 578 nm was measured on a spectrophotometer, and the absorbance of the sample without the substrate was substracted as a reference value. The IC50 value was determined from the concentration-dependent curves in GraphPad Prism software. The values shown in Table 1 are the average of at least two measurements each performed in three repetitions. […] The substance 3,5DCl-Ph-U is 1-(3,5-dichlorophenyl)-3-phenylurea, which we have been prepared to compare its inhibitory activity with the compounds presented in the present invention. Addition of the amide group to the unsubstituted phenyl ring of this substance gives the compound 2AD-3,5DC, which has 42-fold better inhibitory activity with the ZmCKX1 enzyme than 3,5DCl-Ph-U. F-INCYDE ((2-fluoro-9H-purin-6-yl)-(3-methoxyphenyl)amine), CPPU (1-(2-chloropyridin-4-yl)-3-phenylurea), and DCPPU (1-(2,6-dichloropyridin-4-yl)-3-phenylurea) are substances known in the prior art.

T1 sequence (Q9T0N8 19-534): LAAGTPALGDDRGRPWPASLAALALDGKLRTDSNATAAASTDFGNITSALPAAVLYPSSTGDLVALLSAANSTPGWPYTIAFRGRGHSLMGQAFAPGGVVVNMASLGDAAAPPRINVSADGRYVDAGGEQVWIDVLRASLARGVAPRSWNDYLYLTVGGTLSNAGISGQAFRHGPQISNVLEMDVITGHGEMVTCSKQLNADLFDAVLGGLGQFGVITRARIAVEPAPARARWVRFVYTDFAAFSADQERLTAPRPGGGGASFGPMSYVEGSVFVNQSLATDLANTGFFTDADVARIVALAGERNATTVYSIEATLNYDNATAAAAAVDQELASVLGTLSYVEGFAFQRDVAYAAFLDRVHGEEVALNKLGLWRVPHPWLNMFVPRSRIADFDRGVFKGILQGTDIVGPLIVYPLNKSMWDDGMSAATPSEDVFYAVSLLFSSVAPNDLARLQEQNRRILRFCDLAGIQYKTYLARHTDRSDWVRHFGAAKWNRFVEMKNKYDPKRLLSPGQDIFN

| SMILES | pIC50 |
| --- | --- |
| O=C(Nc1ccccc1)Nc1ccnc(Cl)c1 [CPPU, 1-(2-chloro-4-pyridyl)-3-phenylurea, reference compound] | 4.74 |
| NC(=O)c1ccccc1NC(=O)Nc1cccc(Br)c1 [compound 2, 2-[3-(3-bromophenyl)ureido]benzamide] | 6.47 |
| NC(=O)c1ccccc1NC(=O)Nc1cc(Br)cc(Br)c1 [compound 7, 2-[3-(3,5-dibromophenyl)ureido]benzamide] | 7.33 |
| NC(=O)c1ccccc1NC(=O)Nc1cc(Cl)cc(Br)c1 [compound 9, 2-[3-(3-bromo-5-chlorophenyl)ureido]benzamide] | 7.40 |
| NC(=O)c1ccccc1NC(=O)Nc1cc(Cl)cc(OC(F)(F)F)c1 [compound 11, 2-[3-(3-Chloro-5-trifluoromethoxyphenyl)ureido]benzamide] | 6.92 |
| NC(=O)c1ccc(F)cc1NC(=O)Nc1cccc(Cl)c1 [compound 12, 2-[3-(3-chlorophenyl)ureido]-4-fluorobenzamide] | 7.05 |
| COc1cc(Cl)cc(NC(=O)Nc2cc(Br)ccc2C(N)=O)c1 [compound 20, 4-bromo-2-[3-(3-chloro-5-methoxyphenyl)ureido]benzamide] | 7.47 |
| COc1ccc(C(N)=O)c(NC(=O)Nc2cccc(Br)c2)c1 [compound 23, 2-[3-(3-bromophenyl)ureido]-4-methoxybenzamide] | 7.48 |
| COc1ccc(C(N)=O)c(NC(=O)Nc2cc(Cl)cc(Br)c2)c1 [compound 25, 2-[3-(3-bromo-5-chlorophenyl)ureido]-4-methoxybenzamide] | 9.00 |
| NC(=O)c1ccc(OC(F)(F)F)cc1NC(=O)Nc1cccc(Br)c1 [compound 27, 2-[3-(3-bromophenyl)ureido]-4-trifluoromethoxybenzamide] | 8.15 |
| NC(=O)c1ccc(OC(F)(F)F)cc1NC(=O)Nc1cc(Cl)cc(Cl)c1 [compound 28, 2-[3-(3,5-Dichlorophenyl)ureido]-4-trifluoromethoxybenzamide] | 9.00 |
| CCNC(=O)c1ccc(Br)cc1NC(=O)Nc1cc(Cl)cc(Cl)c1 [compound 35, 4-Bromo-2-[3-(3,5-dichlorophenyl)ureido]-N-ethylbenzamide] | 8.52 |
| NNC(=O)c1ccc(Br)cc1NC(=O)Nc1cc(Cl)cc(Cl)c1 [compound 45, 1-(5-Bromo-2-hydrazinocarbonylphenyl)-3-(3,5-dichlorophenyl)-urea] | 7.70 |

same assay, conditions: 10 µM iP as substrate, pH 7.4, 30 min at 37 °C; average of at least two measurements; read-out: IC50 (µM) ZmCKX1

| SMILES | IC50 [µM] |
| --- | --- |
| O=C(Nc1ccccc1)Nc1cc(Cl)cc(Cl)c1 [3,5DCl-Ph-U, 1-(3,5-dichlorophenyl)-3-phenylurea, reference compound] | 0.84 |
| O=C(Nc1ccccc1)Nc1cc(Cl)nc(Cl)c1 [DCPPU, 1-(2,6-dichloropyridin-4-yl)-3-phenylurea, reference compound] | 4.5 |
| COc1cccc(Nc2nc(F)nc3[nH]cnc23)c1 [F-INCYDE, (2-fluoro-9H-purin-6-yl)-(3-methoxyphenyl)amine, reference compound] | 1 |
| NC(=O)c1ccccc1NC(=O)Nc1cccc(F)c1 [compound 1, 2-[3-(3-fluorophenyl)ureido]benzamide] | 0.45 |
| COc1cccc(NC(=O)Nc2ccccc2C(N)=O)c1 [compound 3] | 0.32 |
| NC(=O)c1ccccc1NC(=O)Nc1cccc(OC(F)(F)F)c1 [compound 4] | 0.21 |
| NC(=O)c1ccccc1NC(=O)Nc1cc(F)cc(F)c1 [compound 5, 2-[3-(3,5-difluorophenyl)ureido]benzamide] | 0.16 |
| NC(=O)c1ccccc1NC(=O)Nc1cc(Cl)cc(Cl)c1 [compound 6, 2-[3-(3,5-Dichlorophenyl)ureido]benzamide] | 0.022 |
| NC(=O)c1ccccc1NC(=O)Nc1cc(F)cc(Cl)c1 [compound 8, 2-[3-(3-Chloro-5-fluorophenyl)ureido]benzamide] | 0.11 |
| Cc1cc(Cl)cc(NC(=O)Nc2ccccc2C(N)=O)c1 [compound 10, 2-[3-(3-chloro-5-methylphenyl)ureido]benzamide] | 0.07 |
| NC(=O)c1ccc(F)cc1NC(=O)Nc1cc(Cl)cc(Cl)c1 [compound 13, 2-[3-(3,5-dichlorophenyl)ureido]-4-fluorobenzamide] | 0.018 |
| COc1cc(Cl)cc(NC(=O)Nc2cc(F)ccc2C(N)=O)c1 [compound 14, 2-[3-(3-chloro-5-methoxyphenyl)ureido]-4-fluorobenzamide] | 0.028 |
| NC(=O)c1ccc(Cl)cc1NC(=O)Nc1cccc(Cl)c1 [compound 15, 4-chloro-2-[3-(3-chlorophenyl)ureido]benzamide] | 0.035 |
| NC(=O)c1ccc(Cl)cc1NC(=O)Nc1cc(Cl)cc(Cl)c1 [compound 16, 4-Chloro-2-[3-(3,5-dichlorophenyl)ureido]benzamide] | 0.002 |
| COc1ccc(C(N)=O)c(NC(=O)Nc2cccc(F)c2)c1 [compound 21, 2-[3-(3-fluorophenyl)ureido]-4-methoxybenzamide] | 0.058 |
| COc1ccc(C(N)=O)c(NC(=O)Nc2cccc(Cl)c2)c1 [compound 22, 2-[3-(3-chlorophenyl)ureido]-4-methoxybenzamide] | 0.035 |
| NC(=O)c1ccc(OC(F)(F)F)cc1NC(=O)Nc1cccc(Cl)c1 [compound 26, 2-[3-(3-chlorophenyl)ureido]-4-trifluoromethoxybenzamide] | 0.009 |
| CNC(=O)c1ccccc1NC(=O)Nc1cc(Cl)cc(Cl)c1 [compound 29, 2-[3-(3,5-dichlorophenyl)ureido]-N-methylbenzamide] | 0.03 |
| CNC(=O)c1ccc(F)cc1NC(=O)Nc1cc(Cl)cc(Cl)c1 [compound 30, 2-[3-(3,5-dichlorophenyl)ureido]-4-fluoro-N-methylbenzamide] | 0.021 |
| CNC(=O)c1ccc(Cl)cc1NC(=O)Nc1cc(Cl)cc(Cl)c1 [compound 31, 4-chloro-2-[3-(3,5-dichlorophenyl)ureido]-N-methylbenzamide] | 0.014 |
| CNC(=O)c1ccc(OC)cc1NC(=O)Nc1cccc(Cl)c1 [compound 33, 2-[3-(3-chlorophenyl)ureido]-4-methoxy-N-methylbenzamide] | 0.006 |
| CCNC(=O)c1ccccc1NC(=O)Nc1cc(Cl)cc(Cl)c1 [compound 34, 2-[3-(3,5-dichlorophenyl)ureido]-N-ethylbenzamide] | 0.038 |
| CCNC(=O)c1ccc(OC)cc1NC(=O)Nc1cccc(Cl)c1 [compound 36, 2-[3-(3-chlorophenyl)ureido]-4-methoxy-N-ethylbenzamide] | 0.021 |
| CCNC(=O)c1ccc(OC)cc1NC(=O)Nc1cc(Cl)cc(Cl)c1 [compound 37, 2-[3-(3,5-dichlorophenyl)ureido]-4-methoxy-N-ethylbenzamide] | 0.002 |
| CCNC(=O)c1ccc(OC(F)(F)F)cc1NC(=O)Nc1cc(F)cc(Cl)c1 [compound 38, 2-[3-(3-chloro-5-fluorophenyl)ureido]-4-trifluoromethoxy-N-ethylbenzamide] | 0.001 |
| CCCNC(=O)c1ccccc1NC(=O)Nc1cccc(F)c1 [compound 39, 2-[3-(3-fluorophenyl)ureido]-N-propylbenzamide] | 0.17 |
| CCCNC(=O)c1ccccc1NC(=O)Nc1cc(F)cc(F)c1 [compound 40, 2-[3-(3,5-difluorophenyl)ureido]-N-propylbenzamide] | 0.062 |
| CCCNC(=O)c1ccccc1NC(=O)Nc1cc(Cl)cc(Cl)c1 [compound 41, 2-[3-(3,5-dichlorophenyl)ureido]-N-propylbenzamide] | 0.03 |
| CCCNC(=O)c1ccc(OC)cc1NC(=O)Nc1cc(Cl)cc(Cl)c1 [compound 43, 2-[3-(3,5-dichlorophenyl)ureido]-4-methoxy-N-propylbenzamide] | 0.004 |
| NNC(=O)c1ccccc1NC(=O)Nc1cc(Cl)cc(Cl)c1 [compound 44, 1-(3,5-dichlorophenyl)-3-(2-hydrazinocarbonylphenyl)-urea] | 0.074 |

same assay, conditions: ratio versus 3,5DCl-Ph-U

| SMILES | better inhibitory activity with the ZmCKX1 enzyme than 3,5DCl-Ph-U [fold] |
| --- | --- |
| NC(=O)c1ccccc1NC(=O)Nc1cc(Cl)cc(Cl)c1 [compound 6, 2-[3-(3,5-Dichlorophenyl)ureido]benzamide] | 42 |

same assay, conditions: read-out: IC50 (µM) ZmCKX1; 10 µM iP as substrate, pH 7.4, 30 min at 37 °C; average of at least two measurements

| SMILES | IC50 [µM] |
| --- | --- |
| NC(=O)c1ccc(Cl)cc1NC(=O)Nc1cc(Cl)cc(Br)c1 [compound 17, 2-[3-(3-bromo-5-chlorophenyl)ureido]-4-chlorobenzamide] | 0.001 |
| NC(=O)c1ccc(Br)cc1NC(=O)Nc1cccc(Cl)c1 [compound 18, 4-bromo-2-[3-(3-chlorophenyl)ureido]benzamide] | 0.011 |
| NC(=O)c1ccc(Br)cc1NC(=O)Nc1cc(Cl)cc(Cl)c1 [compound 19, 4-Bromo-2-[3-(3,5-dichlorophenyl)ureido]benzamide] | 0.001 |
| CNC(=O)c1ccc(Br)cc1NC(=O)Nc1cc(Cl)cc(Cl)c1 [compound 32, 4-bromo-2-[3-(3,5-dichlorophenyl)ureido]-N-methylbenzamide] | 0.01 |
| CCCNC(=O)c1ccc(Cl)cc1NC(=O)Nc1cc(F)cc(F)c1 [compound 42, 4-chloro-2-[3-(3,5-difluorophenyl)ureido]-N-propylbenzamide] | 0.022 |
